According to US12077503B2, “Substituted cyclic amides and their use as herbicides” (FMC CORPORATION, priority 2015, dated 2024):
Like-named read-outs stand apart in the source and are kept apart here.

Legend:
Type in all cases: in vivo
[1] = system: ryegrass, Italian (Italian ryegrass, Lolium multiflorum); assay: Test A preemergence; details: Lolium multiflorum, pre-emergence, 240 h, preemergence, 0 to 100 scale where 0 is no effect and 100 is complete control, read-out: Ryegrass, Italian plant response rating; for pest or weed control at 125 g/ha: 125 g ai/ha, visual injury rating, approximately 10 d; for pest or weed control at 500 g/ha: 500 g ai/ha
In short: (§1)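 Visual injury, scored on a 0–100 scale relative to untreated controls, was recorded about 10 d after application. Treatments were a preemergence soil spray over planted seeds or a postemergence spray on plants at the one- to two-leaf stage, 2 to 10 cm tall, all in loam soil–sand blend in the greenhouse.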

[2] = system: giant foxtail (Setaria faberii); assay: Test A preemergence; details: Setaria faberi, pre-emergence, 240 h, preemergence, 0 to 100 scale where 0 is no effect and 100 is complete control, read-out: Foxtail, Giant plant response rating; for pest or weed control at 125 g/ha: 125 g ai/ha, visual injury rating, approximately 10 d; for pest or weed control at 500 g/ha: 500 g ai/ha
In short: as §1

[3] = system: barnyardgrass (Echinochloa crus-galli); assay: Test A preemergence; details: Echinochloa crus-galli, pre-emergence, 240 h, preemergence, 0 to 100 scale where 0 is no effect and 100 is complete control, read-out: Barnyardgrass plant response rating; for pest or weed control at 125 g/ha: 125 g ai/ha, visual injury rating, approximately 10 d; for pest or weed control at 500 g/ha: 500 g ai/ha
In short: as §1

[4] = system: ragweed (common ragweed, Ambrosia elatior); assay: Test A preemergence; details: Ambrosia artemisiifolia, pre-emergence, 240 h, preemergence, 0 to 100 scale where 0 is no effect and 100 is complete control, read-out: Ragweed plant response rating; for pest or weed control at 125 g/ha: 125 g ai/ha, visual injury rating, approximately 10 d; for pest or weed control at 500 g/ha: 500 g ai/ha
In short: as §1

Kochia (Kochia scoparia) [5] = assay: Test A preemergence; details: Bassia scoparia, pre-emergence, 240 h, preemergence, 0 to 100 scale where 0 is no effect and 100 is complete control, read-out: Kochia plant response rating; for pest or weed control at 125 g/ha: 125 g ai/ha, visual injury rating, approximately 10 d; for pest or weed control at 500 g/ha: 500 g ai/ha
In short: as §1

[6] = system: pigweed (Amaranthus retroflexus); assay: Test A preemergence; details: Amaranthus retroflexus, pre-emergence, 240 h, preemergence, 0 to 100 scale where 0 is no effect and 100 is complete control, read-out: Pigweed plant response rating; for pest or weed control at 125 g/ha: 125 g ai/ha, visual injury rating, approximately 10 d; for pest or weed control at 500 g/ha: 500 g ai/ha
[7] = system: ryegrass, Italian (Italian ryegrass, Lolium multiflorum); assay: Test A postemergence; details: Lolium multiflorum, post-emergence, 240 h; for pest or weed control at 125 g/ha: 125 g ai/ha, visual injury vs untreated controls after approx. 10 d, 0 = no effect, 100 = complete control, read-out: Ryegrass, Italian plant response rating (0 to 100 scale); for pest or weed control at 500 g/ha: 500 g ai/ha
In short: as §1

[8] = system: giant foxtail (Setaria faberii); assay: Test A postemergence; details: Setaria faberi, post-emergence, 240 h; for pest or weed control at 125 g/ha: 125 g ai/ha, visual injury vs untreated controls after approx. 10 d, 0 = no effect, 100 = complete control, read-out: Foxtail, Giant plant response rating (0 to 100 scale); for pest or weed control at 500 g/ha: 500 g ai/ha
In short: as §1

[9] = system: wheat (Triticum aestivum); assay: Test A postemergence; details: Triticum aestivum, post-emergence, 240 h; for plant injury at 125 g/ha: 125 g ai/ha, visual injury vs untreated controls after approx. 10 d, 0 = no effect, 100 = complete control, read-out: Wheat plant response rating (0 to 100 scale); for plant injury at 500 g/ha: 500 g ai/ha
In short: as §1

[10] = system: barnyardgrass (Echinochloa crus-galli); assay: Test A postemergence; details: Echinochloa crus-galli, post-emergence, 240 h; for pest or weed control at 125 g/ha: 125 g ai/ha, visual injury vs untreated controls after approx. 10 d, 0 = no effect, 100 = complete control, read-out: Barnyardgrass plant response rating (0 to 100 scale); for pest or weed control at 500 g/ha: 500 g ai/ha
In short: as §1

[11] = system: ragweed (common ragweed, Ambrosia elatior); assay: Test A postemergence; details: Ambrosia artemisiifolia, post-emergence, 240 h; for pest or weed control at 125 g/ha: 125 g ai/ha, visual injury vs untreated controls after approx. 10 d, 0 = no effect, 100 = complete control, read-out: Ragweed plant response rating (0 to 100 scale); for pest or weed control at 500 g/ha: 500 g ai/ha
In short: as §1

corn (Zea mays) = assay: Test A postemergence; details: Zea mays, post-emergence, 240 h; for plant injury at 125 g/ha: 125 g ai/ha, visual injury vs untreated controls after approx. 10 d, 0 = no effect, 100 = complete control, read-out: Corn plant response rating (0 to 100 scale)
In short: as §1

Kochia (Kochia scoparia) [12] = assay: Test A postemergence; details: Bassia scoparia, post-emergence, 240 h; for pest or weed control at 125 g/ha: 125 g ai/ha, visual injury vs untreated controls after approx. 10 d, 0 = no effect, 100 = complete control, read-out: Kochia plant response rating (0 to 100 scale); for pest or weed control at 500 g/ha: 500 g ai/ha
In short: as §1

[13] = system: Galium (catchweed bedstraw, Galium aparine); assay: Test A postemergence; details: Galium, post-emergence, 240 h; for pest or weed control at 125 g/ha: 125 g ai/ha, visual injury vs untreated controls after approx. 10 d, 0 = no effect, 100 = complete control, read-out: Galium plant response rating (0 to 100 scale); for pest or weed control at 500 g/ha: 500 g ai/ha
In short: as §1

[14] = system: pigweed (Amaranthus retroflexus); assay: Test A postemergence; details: Amaranthus retroflexus, post-emergence, 240 h; for pest or weed control at 125 g/ha: 125 g ai/ha, visual injury vs untreated controls after approx. 10 d, 0 = no effect, 100 = complete control, read-out: Pigweed plant response rating (0 to 100 scale); for pest or weed control at 500 g/ha: 500 g ai/ha
In short: as §1

SMILES	pest or weed control at 125 g/ha [1]	pest or weed control at 500 g/ha [1]	pest or weed control at 125 g/ha [2]	pest or weed control at 500 g/ha [2]	pest or weed control at 125 g/ha [3]	pest or weed control at 500 g/ha [3]	pest or weed control at 125 g/ha [4]	pest or weed control at 500 g/ha [4]	pest or weed control at 125 g/ha (Kochia (Kochia scoparia) [5])	pest or weed control at 500 g/ha (Kochia (Kochia scoparia) [5])	pest or weed control at 125 g/ha [6]	pest or weed control at 500 g/ha [6]	pest or weed control at 125 g/ha ([7]; postemergence)	pest or weed control at 125 g/ha ([8]; postemergence)	plant injury at 125 g/ha ([9]; postemergence)	pest or weed control at 125 g/ha ([10]; postemergence)	pest or weed control at 125 g/ha ([11]; postemergence)	plant injury at 125 g/ha (corn (Zea mays); postemergence)	pest or weed control at 125 g/ha (Kochia (Kochia scoparia) [12]; postemergence)	pest or weed control at 125 g/ha ([13]; postemergence)	other results
CN1C[C@H](c2cc(F)cc(C(F)(F)F)c2)[C@@H](C(=O)Nc2cccc(F)c2F)C1=O [Compound 1214]	60%	90%	90%	90%	90%	90%	0%	70%	50%	60%	60%	70%	60%	90%	70%	90%	0%	80%	60%	60%	pest or weed control at 500 g/ha ([7]; postemergence, 0 to 100 scale, 0 is no effect, 100 is complete control, read-out: Ryegrass, Italian plant response rating): 80%; pest or weed control at 500 g/ha ([8]; postemergence, 0 to 100 scale, 0 is no effect, 100 is complete control, read-out: Foxtail, Giant plant response rating): 90%; plant injury at 500 g/ha ([9]; postemergence, 0 to 100 scale, 0 is no effect, 100 is complete control, read-out: Wheat plant response rating): 80%; pest or weed control at 500 g/ha ([10]; postemergence, 0 to 100 scale, 0 is no effect, 100 is complete control, read-out: Barnyardgrass plant response rating): 90%; pest or weed control at 500 g/ha ([11]; postemergence, 0 to 100 scale, 0 is no effect, 100 is complete control, read-out: Ragweed plant response rating): 30%; plant injury at 500 g/ha (corn (Zea mays); 500 g ai/ha, postemergence, 0 to 100 scale, 0 is no effect, 100 is complete control, read-out: Corn plant response rating): 90%; pest or weed control at 500 g/ha (Kochia (Kochia scoparia) [12]; postemergence, 0 to 100 scale, 0 is no effect, 100 is complete control, read-out: Kochia plant response rating): 80%; pest or weed control at 500 g/ha ([13]; postemergence, 0 to 100 scale, 0 is no effect, 100 is complete control, read-out: Galium plant response rating): 60%; pest or weed control at 125 g/ha ([14]; postemergence): 30%; pest or weed control at 500 g/ha ([14]; postemergence, 0 to 100 scale, 0 is no effect, 100 is complete control, read-out: Pigweed plant response rating): 60%
CSc1ccccc1NC(=O)[C@H]1C(=O)N(C)C[C@@H]1c1ccc2c(c1)OC(F)(F)O2 [Compound 1251]	50%	60%	100%	100%	100%	100%	70%	80%	80%	90%	90%	90%	20%	70%	30%	80%	0%	20%	50%	50%	pest or weed control at 500 g/ha ([7]; Postemergence, visual injury, 0 to 100 scale (0 no effect, 100 complete control), approx. 10 d, read-out: Plant response rating, Ryegrass, Italian): 40%; pest or weed control at 500 g/ha ([8]; Postemergence, visual injury, 0 to 100 scale (0 no effect, 100 complete control), approx. 10 d, read-out: Plant response rating, Foxtail, Giant): 80%; plant injury at 500 g/ha ([9]; Postemergence, visual injury, 0 to 100 scale (0 no effect, 100 complete control), approx. 10 d, read-out: Plant response rating, Wheat): 60%; pest or weed control at 500 g/ha ([10]; Postemergence, visual injury, 0 to 100 scale (0 no effect, 100 complete control), approx. 10 d, read-out: Plant response rating, Barnyardgrass): 100%; pest or weed control at 500 g/ha ([11]; Postemergence, visual injury, 0 to 100 scale (0 no effect, 100 complete control), approx. 10 d, read-out: Plant response rating, Ragweed): 50%; Corn plant response rating (crop injury, 0 = no effect, 100 = complete kill) at 500 g/ha (corn (Zea mays); Postemergence, 500 g ai/ha, visual injury, 0 to 100 scale (0 no effect, 100 complete control), approx. 10 d): 80%; pest or weed control at 500 g/ha (Kochia (Kochia scoparia) [12]; Postemergence, visual injury, 0 to 100 scale (0 no effect, 100 complete control), approx. 10 d, read-out: Plant response rating, Kochia): 70%; pest or weed control at 500 g/ha ([13]; Postemergence, visual injury, 0 to 100 scale (0 no effect, 100 complete control), approx. 10 d, read-out: Plant response rating, Galium): 50%; pest or weed control at 125 g/ha ([14]; postemergence): 70%; pest or weed control at 500 g/ha ([14]; Postemergence, visual injury, 0 to 100 scale (0 no effect, 100 complete control), approx. 10 d, read-out: Plant response rating, Pigweed): 80%
